Experimental data as given in patent US12098145B2 (Libra Therapeutics, Inc., priority 2022, dated 2024).
Where two headings read alike, the source gives them in different places.

Legend:
[1] = test system: TFEB; assay: TFEB translocation assay (TFEB reporter in U2OS cells, imaging); type: cell-based; conditions: Homo sapiens; U2OS cell line with TFEB reporter, 2 hours incubation, nucleus to cytoplasm ratio, normalized to Torin-1; read-out: TFEB Translocation pEC50 (converted)
Method: Example B: TFEB Translocation Assay
Reporter TFEB: the reporter is fused to a sequence of monomeric red fluorescent protein.
The reporter TFEB have been stably expressed in U2OS cell line and used as read-out.
Experiments were performed in 384 MTP well format. Cells were seeded in 384-w at a density of 4000 cells/well in 20 μl/well complete growth medium without antibiotics. Twenty-four hours later, cells were treated with compounds and incubated for further 2 hours. Then the cells were imaged and assayed for the response to various compounds using the reporter for TFEB expressed in the cells as readout.
The experiments were performed in a 384-well format according to the following procedure: • 24 h after seeding, cell culture medium was carefully removed and replaced with 20 μl of Opti-MEM (30′ incubation at 37° C. before compound addition) • Then, cells were incubated with compounds diluted in Opti-MEM+0.015% Tween 80 at the desired concentration, with the reference molecule (agonist) Torin-1 at a top concentration of 1 μM (max signal), and with the other reference molecule (agonist) MLSA-5 at top concentration of 20 μM for 2 hours at 37° C. and 5% CO2. The final percentage of DMSO was 0.5% in all the conditions. • Staining of the nuclei was obtained by incubating the cells with 24 μM/well of Hoechst 3342 in standard Tyrode's buffer for 15 min at RT • Then the cells were fixed with PFA 4% for 30 min at RT • After three washes with standard Tyrode's buffer, samples were acquired by recording two fluorescence emission channels (DS-red and blue) at 20× magnification and with at least 3 fields of view per well in an Operetta CLS microscope (PerkinElmer). • Image analysis was performed by using Harmony software (PerkinElmer). The image analysis involved the following steps: flat-field illumination correction, nuclei segmentation, cytoplasm segmentation and calculation of intensity fluorescence in the cytosol and nuclei compartments. Measurements of signal intensity ratio (nucleus to cytoplasm) was used to obtain information on the effects of compounds on the TFEB translocation. • Data from image analysis measurements were finally loaded and analyzed for normalization and fitting procedures in Genedata Screener© software. Data Analysis
Feature: Mean translocation ratio (mean/well)
Data normalization: Stimulator—Neutral control
The GeneData Screener method we have used, normalizes the median of the Stimulator control wells (Torin-1) to 100% and the median of the Neutral control wells (DMSO) to 0% Activity[%]=100*(x−<Min>)/(<“Max”>−<Min>)

[2] = target: T1, TRPML1 (Homo sapiens, UniProt Q9GZU1); assay: Cellular TRPML1 assay (FLIPR, GCaMP6f calcium read-out); type: cell-based
T1 construct: expressed in transfected cells; host or cells: HEK T-REx cells stably expressing GCaMP6f and TRPML1
Method in brief: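 HEK T-REx cells stably expressing TRPML1 and GCaMP6f, seeded 24 h before in Optimem + 0.5% FBS. After ~10 min pre-incubation at room temperature, compounds in Ca2+-free Tyrode's buffer were injected on FLIPR Tetra (final DMSO 0.5%). Calcium fluorescence kinetics followed for 300 s.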

[3] = HEKT-REx/GCaMP6f/TRPML1 cells, FLIPR TETRA, kinetic response over 300 seconds, read-out: TRPML1 FLIPR pEC50 (converted)

T1 sequence (Q9GZU1 whole entry): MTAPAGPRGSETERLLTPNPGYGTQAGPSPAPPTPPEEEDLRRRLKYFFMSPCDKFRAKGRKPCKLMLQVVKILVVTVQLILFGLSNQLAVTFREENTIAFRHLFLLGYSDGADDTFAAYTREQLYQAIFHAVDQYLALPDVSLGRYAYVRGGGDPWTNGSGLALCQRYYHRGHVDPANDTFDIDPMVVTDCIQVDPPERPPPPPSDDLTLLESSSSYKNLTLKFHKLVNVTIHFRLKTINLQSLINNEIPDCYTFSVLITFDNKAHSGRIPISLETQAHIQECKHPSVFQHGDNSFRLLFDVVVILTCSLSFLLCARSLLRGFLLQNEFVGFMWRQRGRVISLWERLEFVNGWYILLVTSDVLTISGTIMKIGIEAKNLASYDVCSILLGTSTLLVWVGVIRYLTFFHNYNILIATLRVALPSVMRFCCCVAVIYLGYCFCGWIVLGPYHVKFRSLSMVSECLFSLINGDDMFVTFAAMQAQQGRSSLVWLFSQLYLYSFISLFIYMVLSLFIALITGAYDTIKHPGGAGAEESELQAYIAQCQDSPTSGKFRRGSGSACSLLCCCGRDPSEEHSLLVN

Row | EC50 [2, 3] [nM] | SMILES | EC50 [1] [nM] | EC50 [2] [nM]
1 | – | CCC1(CC)CN(c2nc(C(=O)Nc3cc(C)c(N4C5CCCC4CC5)c(F)c3)c(CCF)o2)C1 [Example 289, N-(4-(8-azabicyclo[3.2.1]octan-8-yl)-3-fluoro-5-methylphenyl)-2-(3,3-diethylazetidin-1-yl)-5-(2-fluoroethyl)oxazole-4-carboxamide] | 10 to 1000 | 10 to 1000
2 | 10 to 1000 | CCc1oc(N2CC(CC)(CC)C2)nc1C(=O)Nc1cc(F)c2c(c1)CCN2C1CC2CC2C1 (stereo not drawn) [Example 316, N-(1-(bicyclo[3.1.0]hexan-3-yl)-7-fluoroindolin-5-yl)-2-(3,3-diethylazetidin-1-yl)-5-ethyloxazole-4-carboxamide] | 10 to 1000 | –
3 | 10 to 1000 | O=C(Nc1ccc(OC2CCCC2(F)F)c(F)c1)c1nc(N2CCC3(CC3)C2)oc1CC(F)(F)F (stereo not drawn) [Example 21, N-(4-((2,2-difluorocyclopentyl)oxy)-3-fluorophenyl)-2-(5-azaspiro[2.4]heptan-5-yl)-5-(2,2,2-trifluoroethyl)oxazole-4-carboxamide] | 10 to 1000 | –
4 | 10 to 1000 | CCc1oc(N2CC(CC)(OC)C2)nc1C(=O)Nc1cc(F)c(OC2CC3CC(C3)C2)c(F)c1 (stereo not drawn) [Example 230, N-(4-(bicyclo[3.1.1]heptan-3-yloxy)-3,5-difluorophenyl)-5-ethyl-2-(3-ethyl-3-methoxyazetidin-1-yl)oxazole-4-carboxamide] | 10 to 1000 | –
5 | 10 to 1000 | O=C(Nc1ccc(OC2CCCC2(F)F)c(F)c1)c1nc(N2CCC3(COC3)C2)oc1CC(F)(F)F (stereo not drawn) [Example 19, N-{4-[(2,2-difluorocyclopentyl)oxy]-3-fluorophenyl}-2-{2-oxa-6-azaspiro[3.4]octan-6-yl}-5-(2,2,2-trifluoroethyl)oxazole-4-carboxamide] | 10 to 1000 | –
6 | 10 to 1000 | CCC1(CC)CN(c2nc(C(=O)Nc3cc(C)c(OC4CC5CC(C5)C4)c(O)c3)c(CC(F)(F)F)o2)C1 (stereo not drawn) [Example 260, N-(4-(bicyclo[3.1.1]heptan-3-yloxy)-3-hydroxy-5-methylphenyl)-2-(3,3-diethylazetidin-1-yl)-5-(2,2,2-trifluoroethyl)oxazole-4-carboxamide] | 10 to 1000 | –
7 | 10 to 1000 | CCN(C)Cc1oc(N2CC(CC)(OC)C2)nc1C(=O)Nc1cc(F)c(OC2CC3CC(C3)C2)c(F)c1 (stereo not drawn) [Example 302, N-(4-(bicyclo[3.1.1]heptan-3-yloxy)-3,5-difluorophenyl)-5-((ethyl(methyl)amino)methyl)-2-(3-ethyl-3-methoxyazetidin-1-yl)oxazole-4-carboxamide] | 10 to 1000 | –
8 | 10 to 1000 | CCc1oc(N2CCCC2)nc1C(=O)Nc1cc(F)c(OC2CC3CC(C3)C2)c(F)c1 (stereo not drawn) [Example 229, N-(4-(bicyclo[3.1.1]heptan-3-yloxy)-3,5-difluorophenyl)-5-ethyl-2-(pyrrolidin-1-yl)oxazole-4-carboxamide] | 10 to 1000 | –
9 | 1000 to 10000 | O=C(Nc1ccc(OC2CCCC2)c(F)c1)c1nc(N2CC3(C2)CC(F)(F)C3)oc1CC(F)(F)F [Example 48, N-[4-(cyclopentyloxy)-3-fluorophenyl]-2-{6,6-difluoro-2-azaspiro[3.3]heptan-2-yl}-5-(2,2,2-trifluoroethyl)oxazole-4-carboxamide] | 10 to 1000 | –
10 | 10 to 1000 | CCC1(CC)CN(c2nc(C(=O)Nc3cc(F)c(O[C@@H]4C[C@@H]5C[C@@H]5C4)c(F)c3)c(CN3CCCC3)o2)C1 [Example 299, N-(4-(cis-bicyclo[3.1.0]hexan-3-yloxy)-3,5-difluorophenyl)-2-(3,3-diethylazetidin-1-yl)-5-(pyrrolidin-1-ylmethyl)oxazole-4-carboxamide] | 10 to 1000 | –
11 | 10 to 1000 | O=C(Nc1cc(F)c(OC2CC3C[C@H]3C2)c(F)c1)c1nc(N2CCC3(CC3)C2)oc1CC(F)(F)F (stereo partly drawn) [Example 38] | 10 to 1000 | –
12 | 10 to 1000 | O=C(Nc1cc(F)c(OC2CC3C[C@@H]3C2)c(F)c1)c1nc(N2CC3COCC3C2)oc1CC(F)(F)F (stereo partly drawn) [Example 186, N-(4-(cis-bicyclo[3.1.0]hexan-3-yloxy)-3,5-difluorophenyl)-2-(tetrahydro-1H-furo[3,4-c]pyrrol-5(3H)-yl)-5-(2,2,2-trifluoroethyl)oxazole-4-carboxamide] | 10 to 1000 | –
13 | 10 to 1000 | O=C(Nc1cc(F)c(OC2CC3C[C@@H]3C2)c(F)c1)c1nc(N2CCC3CCCC32)oc1CC(F)(F)F (stereo partly drawn) [Example 185, N-(4-(cis-bicyclo[3.1.0]hexan-3-yloxy)-3,5-difluorophenyl)-2-(hexahydrocyclopenta[b]pyrrol-1(2H)-yl)-5-(2,2,2-trifluoroethyl)oxazole-4-carboxamide] | 10 to 1000 | –
14 | 10 to 1000 | O=C(Nc1cc(F)c(OC2CC3C[C@@H]3C2)c(F)c1)c1nc(N2CC3CCC3C2)oc1CC(F)(F)F (stereo partly drawn) [Example 177, N-(4-(cis-bicyclo[3.1.0]hexan-3-yloxy)-3,5-difluorophenyl)-2-(3-azabicyclo[3.2.0]heptan-3-yl)-5-(2,2,2-trifluoroethyl)oxazole-4-carboxamide] | 10 to 1000 | –
15 | 10 to 1000 | Cc1cc(NC(=O)c2nc(N3CCCC3)oc2CCF)cc(F)c1OC1CC2CC(C2)C1 (stereo not drawn) [Example 278, N-(4-(bicyclo[3.1.1]heptan-3-yloxy)-3-fluoro-5-methylphenyl)-5-(2-fluoroethyl)-2-(pyrrolidin-1-yl)oxazole-4-carboxamide] | 10 to 1000 | –
16 | 10 to 1000 | CCC1(CC)CN(c2nc(C(=O)Nc3cc(F)c(OC4CC5C[C@H]5C4)c(F)c3)c(COC)o2)C1 (stereo partly drawn) [Example 295, N-(4-(cis-bicyclo[3.1.0]hexan-3-yloxy)-3,5-difluorophenyl)-2-(3,3-diethylazetidin-1-yl)-5-(methoxymethyl)oxazole-4-carboxamide] | 10 to 1000 | –
17 | – | CCC1(OC)CN(c2nc(C(=O)Nc3cc(F)c(N4C5CCCC4CC5)c(F)c3)c(CC(F)(F)F)o2)C1 [Example 206, N-(4-(8-azabicyclo[3.2.1]octan-8-yl)-3,5-difluorophenyl)-2-(3-ethyl-3-methoxyazetidin-1-yl)-5-(2,2,2-trifluoroethyl)oxazole-4-carboxamide] | 10 to 1000 | 10 to 1000
18 | – | COC1(C)CN(c2nc(C(=O)Nc3ccc(N4C5CCCC4CC5)c(C#N)c3)c(CC(F)(F)F)o2)C1 [Example 197, N-(4-(8-azabicyclo[3.2.1]octan-8-yl)-3-cyanophenyl)-2-(3-methoxy-3-methylazetidin-1-yl)-5-(2,2,2-trifluoroethyl)oxazole-4-carboxamide] | 10 to 1000 | 10 to 1000
19 | 10 to 1000 | Cc1cc(NC(=O)c2nc(N3CC(C)(CO)C3)oc2CC(F)(F)F)cc(F)c1OC1CC2CC(C2)C1 (stereo not drawn) [Example 129, N-(4-(bicyclo[3.1.1]heptan-3-yloxy)-3-fluoro-5-methylphenyl)-2-(3-(hydroxymethyl)-3-methylazetidin-1-yl)-5-(2,2,2-trifluoroethyl)oxazole-4-carboxamide] | 10 to 1000 | –
20 | 1000 to 10000 | O=C(Nc1ccc(OC2CCCC2(F)F)c(F)c1)c1nc(N2CCC(CO)C2)oc1CC(F)(F)F (stereo not drawn) [Example 3, N-(4-((2,2-difluorocyclopentyl)oxy)-3-fluorophenyl)-2-(3-(hydroxymethyl)pyrrolidin-1-yl)-5-(2,2,2-trifluoroethyl)oxazole-4-carboxamide] | 1000 to 10000 | –
21 | 10000 to 100000 | Cc1oc(-n2cccn2)nc1C(=O)Nc1ccc(N2CCCCC2)c(F)c1 [Example 118, N-(3-fluoro-4-(piperidin-1-yl)phenyl)-5-methyl-2-(1H-pyrazol-1-yl)oxazole-4-carboxamide] | 1000 to 10000 | –
